Data as given in patent US8148070B2, “Genetic polymorphisms associated with coronary events and drug response, methods of detection and uses thereof” (Celera Corporation, priority 2007, dated 2012).

System: CARE patients
Test: CARE trial: pravastatin vs placebo, recurrent MI in subgroups defined by KIF6 (and neighbouring SNP) genotype
Assay type: in vivo, human
Details: for HR, Unadjusted (recurrent MI, pravastatin vs placebo): placebo = ref; for OR for minor hom / OR for carrier (Min + Het) / OR for Het / OR for major hom: risk of recurrent MI
From the text: In order to identify genetic markers associated with CHD (particularly MI, including recurrent MI) or the effect of statin treatment on CHD, samples were genotyped in two clinical trials: the Cholesterol and Recurrent Events (CARE) study (a randomized multicentral double-blinded trial on secondary prevention of MI with pravastatin (Pravachol®); Sacks et al., Am. J. Cardiol. 68: 1436-1446 [1991]), and the West of Scotland Coronary Prevention Study (WOSCOPS) study (a randomized multicentral double-blinded trial on primary prevention of CHD with pravastatin (Pravachol®); Shepherd et al., N Eng J Med 333 (20), pp. 1301-7, Nov. 16, 1995; Packard et al., N Eng J Med 343 (16), pp. 1148-55, Oct. 19, 2000).
A well-documented MI was one of the enrollment criteria for entry into the CARE study. Patients were enrolled in the CARE trial from 80 participating study centers. […] Patients were randomized to receive either 40 mg of pravastatin once daily or a matching placebo. The primary endpoint of the trial was death from CHD or nonfatal MI and the median duration of follow-up was 5.0 years (range, 4.0 to 6.2 years). For this genetic study of CARE, a composite endpoint comprised of fatal or nonfatal recurrent MI was used.
For genotyping SNPs in CARE patient samples, DNA was extracted from blood samples using conventional DNA extraction methods such as the QIAamp kit from Qiagen. Genotypes were obtained by a method similar to that described by Iannone (M. A. Iannone et al., Cytometry 39(2):131-140 [Feb. 1, 2000]; also described in section “SNP DETECTION REAGENTS,” supra). Briefly, target DNA was amplified by multiplex PCR, the amplified product was submitted to a multiplex oligo ligation assay (OLA), the specific ligated products were hybridized to unique universal “ZIP code” oligomer sequences covalently attached to Luminex xMAP® Multi-Analyte COOH Microspheres, and these hybridization products/microspheres were detected in a rapid automated multiplex system (Luminex 100 instrument).
In analyzing the CARE patients, statistical analysis was performed with SAS version 9. Cox proportional hazard models (Wald tests) were used in CARE to assess the association of genotype with both the risk of incident MI in the placebo arm and the effect of pravastatin on MI compared to placebo in subgroups defined by genotypes. In analyzing the WOSCOPS patients, a conditional logistic regression model was used in WOSCOPS given that the controls had been previously matched to the cases. The column entitled “On-trial MI” lists the number of patients who suffered a recurrent MI during the clinical trial period.
HR stands for Hazard Ratio, which is a concept similar to Odds Ratio (OR). The HR in event-free survival analysis is the effect of an explanatory variable on the hazard or risk of an event. For examples, it describes the likelihood of developing MI based on comparison of rate of coronary events between carriers of the certain allele and noncarriers; therefore, HR=1.5 would mean that carriers of the certain allele have 50% higher risk of coronary events during the study follow up than non-carriers. HR can also describe the effect of statin therapy on coronary events based on comparison of rate of coronary events between patient treated with statin and patient treated with placebo (or other statin) in subgroups defined by SNP genotype; therefore, HR=0.5 would mean that, for example, carriers of the certain allele, had 50% reduction of coronary events by statin therapy as compared to placebo. In Table 6, p interaction values were calculated. An interaction (or effect modification) is formed when a third variable modifies the relation between an exposure and outcome. […] Genotype and drug interaction is present when the effect of statins (incidence rate of disease in statin-treated group, as compared to placebo) differs in patients with different genotypes. The hCV3054799 risk allele predicted risk of MI in CARE and was associated with odds of CHD in WOSCOPS. […]

CC[C@H](C)C(=O)O[C@H]1C[C@H](O)C=C2C=C[C@H](C)[C@H](CC[C@@H](O)C[C@@H](O)CC(=O)O)[C@H]21 [Pravastatin, pravastatin]
HR, Adjusted (recurrent MI, pravastatin vs placebo) (AA (noncarriers), adjusted for conventional risk factors): 0.80 | On-trial MI (AA, of 554 patients in the pravastatin arm): 39 number of patients | HR, Adjusted (recurrent MI, pravastatin vs placebo) (GG + GA (719Arg carriers), adjusted for age, smoking, hypertension, diabetes, BMI, LDL-C, HDL-C): 0.63 | On-trial MI (GG + GA, of 810 patients in the pravastatin arm): 64 number of patients | HR, Unadjusted (recurrent MI, pravastatin vs placebo) (KIF6 Trp719Arg AA (noncarriers)): 0.86 | HR, Unadjusted (recurrent MI, pravastatin vs placebo) (KIF6 Trp719Arg GG + GA (719Arg carriers), 40 mg pravastatin once daily): 0.63 | reduction of relative risk of recurrent MI (carriers of the 719Arg risk allele, pravastatin vs placebo): 37% | risk reduction (coronary events) (noncarriers, pravastatin vs placebo, insignificant): 20% | OR, Effect of Pravastatin on MI and CHD (pravastatin vs placebo, hCV3054808 genotype AA): 1.04 | OR, Effect of Pravastatin on MI and CHD (pravastatin vs placebo, hCV3054808 genotype AC): 0.50 | OR, Effect of Pravastatin on MI and CHD (pravastatin vs placebo, hCV3054808 genotype CC): 1.01 | OR, Effect of Pravastatin on MI and CHD (pravastatin vs placebo, hCV3054813 genotype CC): 0.98 | OR, Effect of Pravastatin on MI and CHD (pravastatin vs placebo, hCV3054813 genotype CT): 0.45 | OR, Effect of Pravastatin on MI and CHD (pravastatin vs placebo, hCV3054813 genotype TT): 1.06 | OR, Effect of Pravastatin on MI and CHD (pravastatin vs placebo, hCV29992177 genotype AA): 0.71 | OR, Effect of Pravastatin on MI and CHD (pravastatin vs placebo, hCV29992177 genotype GA): 0.57 | OR, Effect of Pravastatin on MI and CHD (pravastatin vs placebo, hCV29992177 genotype GG): 1.88 | OR, Effect of Pravastatin on MI and CHD (pravastatin vs placebo, hCV30225864 genotype CC): 0.79 | OR, Effect of Pravastatin on MI and CHD (pravastatin vs placebo, hCV30225864 genotype CT): 0.63 | OR, Effect of Pravastatin on MI and CHD (pravastatin vs placebo, hCV30225864 genotype TT): 0.73 | OR for minor hom (pravastatin vs placebo, hCV792699 CC minor homozygotes): 0.8127 | OR for carrier (Min + Het) (pravastatin vs placebo, hCV792699 CC+CT carriers of minor allele): 0.7089 | OR for Het (pravastatin vs placebo, hCV792699 CT heterozygotes): 0.6534 | OR for major hom (pravastatin vs placebo, hCV792699 TT major homozygotes): 0.8085 | OR for major hom (pravastatin vs placebo, hCV1650850 CC major homozygotes): 0.7381 | OR for Het (pravastatin vs placebo, hCV1650850 GC heterozygotes): 1.7143 | OR for carrier (Min + Het) (pravastatin vs placebo, hCV1650850 GG+GC carriers of minor allele): 1.7143 | OR for minor hom (pravastatin vs placebo, hCV3054766 AA minor homozygotes): 0.4856 | OR for carrier (Min + Het) (pravastatin vs placebo, hCV3054766 AA+AC carriers of minor allele): 0.6695 | OR for Het (pravastatin vs placebo, hCV3054766 AC heterozygotes): 0.7705 | OR for major hom (pravastatin vs placebo, hCV3054766 CC major homozygotes): 0.9847 | OR for minor hom (pravastatin vs placebo, hCV3054789 AA minor homozygotes): 1.0873 | OR for carrier (Min + Het) (pravastatin vs placebo, hCV3054789 AA+AT carriers of minor allele): 0.8227 | OR for Het (pravastatin vs placebo, hCV3054789 AT heterozygotes): 0.7597 | OR for major hom (pravastatin vs placebo, hCV3054789 TT major homozygotes): 0.6567 | OR for major hom (pravastatin vs placebo, hCV3054799 AA major homozygotes): 0.8639 | OR for Het (pravastatin vs placebo, hCV3054799 GA heterozygotes): 0.5818 | OR for minor hom (pravastatin vs placebo, hCV3054799 GG minor homozygotes): 0.9215 | OR for carrier (Min + Het) (pravastatin vs placebo, hCV3054799 GG+GA carriers of minor allele): 0.6442 | OR for major hom (pravastatin vs placebo, hCV3054805 CC major homozygotes): 0.9323 | OR for Het (pravastatin vs placebo, hCV3054805 GC heterozygotes): 0.5933 | OR for minor hom (pravastatin vs placebo, hCV3054805 GG minor homozygotes): 0.9317 | OR for carrier (Min + Het) (pravastatin vs placebo, hCV3054805 GG+GC carriers of minor allele): 0.6653 | OR for minor hom (pravastatin vs placebo, hCV3054808 AA minor homozygotes): 1.037 | OR for carrier (Min + Het) (pravastatin vs placebo, hCV3054808 AA+AC carriers of minor allele): 0.6257 | OR for Het (pravastatin vs placebo, hCV3054808 AC heterozygotes): 0.5292 | OR for major hom (pravastatin vs placebo, hCV3054808 CC major homozygotes): 1.0056 | OR for minor hom (pravastatin vs placebo, hCV3054822 AA minor homozygotes): 0.852 | OR for carrier (Min + Het) (pravastatin vs placebo, hCV3054822 AA+AT carriers of minor allele): 0.5778 | OR for Het (pravastatin vs placebo, hCV3054822 AT heterozygotes): 0.5213 | OR for major hom (pravastatin vs placebo, hCV3054822 TT major homozygotes): 0.9897 | OR for minor hom (pravastatin vs placebo, hCV3054829 CC minor homozygotes): 0.9021 | OR for carrier (Min + Het) (pravastatin vs placebo, hCV3054829 CC+CT carriers of minor allele): 0.8052 | OR for Het (pravastatin vs placebo, hCV3054829 CT heterozygotes): 0.783 | OR for major hom (pravastatin vs placebo, hCV3054829 TT major homozygotes): 0.6064 | OR for carrier (Min + Het) (pravastatin vs placebo, hCV15876373 CC+CT carriers of minor allele): 0.9708 | OR for Het (pravastatin vs placebo, hCV15876373 CT heterozygotes): 0.8241 | OR for major hom (pravastatin vs placebo, hCV15876373 TT major homozygotes): 0.6881 | OR for major hom (pravastatin vs placebo, hCV29649182 CC major homozygotes): 0.7223 | OR for Het (pravastatin vs placebo, hCV29649182 TC heterozygotes): 0.7631 | OR for minor hom (pravastatin vs placebo, hCV29649182 TT minor homozygotes): 1.7333 | OR for carrier (Min + Het) (pravastatin vs placebo, hCV29649182 TT+TC carriers of minor allele): 0.7818 | OR for minor hom (pravastatin vs placebo, hCV30388472 CC minor homozygotes): 0.5175 | OR for carrier (Min + Het) (pravastatin vs placebo, hCV30388472 CC+CT carriers of minor allele): 0.6291 | OR for Het (pravastatin vs placebo, hCV30388472 CT heterozygotes): 0.6798 | OR for major hom (pravastatin vs placebo, hCV30388472 TT major homozygotes): 1.0182 | OR for carrier (Min + Het) (pravastatin vs placebo, hCV30478067 AA+AG carriers of minor allele): 0.6875 | OR for Het (pravastatin vs placebo, hCV30478067 AG heterozygotes): 0.5153 | OR for major hom (pravastatin vs placebo, hCV30478067 GG major homozygotes): 0.7461 | OR for carrier (Min + Het) (pravastatin vs placebo, hCV31340487 CC+CT carriers of minor allele): 1.1573 | OR for Het (pravastatin vs placebo, hCV31340487 CT heterozygotes): 1.0761 | OR for major hom (pravastatin vs placebo, hCV31340487 TT major homozygotes): 0.697 | OR for carrier (Min + Het) (pravastatin vs placebo, hCV32202303 CC+CG carriers of minor allele): 0.5857 | OR for Het (pravastatin vs placebo, hCV32202303 CG heterozygotes): 0.6208 | OR for major hom (pravastatin vs placebo, hCV32202303 GG major homozygotes): 0.7655 | patients who had experienced another MI (whole pravastatin-treated group, 5 years of follow-up): 114 patients
